For test [1], the system named is subjects. As to the kind of experiment: Stimulant effect: score in video game of skill (Pilot Wing). The class given is in vivo, human. The settings on record: five subjects, crossover with placebo, 180 mg caffeine, Formulation I. As to the method: Five subjects were tested over a period of three days. […] Both prior to and after consuming the composition, each subject played a video game of skill called Pilot Wing™ made by Nintendo™.

Test [2] relates to subjects. As to the kind of experiment: Standard short-term memory test (repeat series of numbers backward). Type of test: in vivo, human. The settings on record: three of the five subjects, 30 minutes after ingestion. As to the method: The test consisted of an examiner reading a series of numbers to the subject and the subject subsequently being asked to repeat said numbers backward. In all cases, the test was initiated 30 minutes after ingestion of the composition.

Each structure is given as a SMILES string.

Take `Cn1c(=O)c2c(ncn2C)n(C)c1=O` [caffeine]: the “video game score after consuming the composition” value with subjects [1] is on record as “higher scores after consuming the caffeine, compared to consuming the placebo”. Moreover, the “digits repeated backwards without error” value in the test on subjects [2] is reported as “could not repeat this accomplishment”.
